{"source": "patent US20110263574A1", "about": "“PIRENZEPINE AS OTOPROTECTIVE AGENT” (PROTEOSYS AG, priority 2009, published 2011)", "key": {"PARP-1": {"tested_on": "PARP-1", "settings": "induced by transient ischemia or acoustic trauma; Tabuchi et al.; cited from earlier work"}, "Outer hair cells (OHC)": {"tested_on": "Outer hair cells (OHC)", "assay": "Otoprotection in cultivated cochlea, cis-platin induced loss of outer hair cells", "type": "cell-based", "settings": "cultivated cochlea of post-natal mice; cis-platin 5 μM; test compound 0.1 to 100 μM; compared to controls", "experimental": "(§1) In cultivated cochlea, a loss of sensory or hair cells was induced by administering cis-platin (5 μM).\n(§2) Intact cochlea of post-natal mice were cultivated up to 7 days (Unsworth and Lelkes, Nat. Med. 4 (1998), 901-907) in simulated microgravity.\n(§3) The otic protectivity of the test compounds PSY 310 and PSY 3101 in the presence of ototoxic agents was tested. Neomycin (an aminoglycoside antibiotic) and cis-platinum (a chemotherapeutic agent) were added in three different concentrations to the cultivate organ over a time period of 48 hours.\n(§4) The test compounds were added in six different amounts of 0.1 to 100 μM respectively."}, "[1]": {"tested_on": "germ cell tumor cell line 2101 Ep", "assay": "Survival rate of cis-platin treated cancer cell line 2101 Ep with simultaneous test compound", "type": "cell-based", "settings": "2101 Ep cells; cis-platin 1.4 μM; 10 μM test compound simultaneously; control DMSO 0.1%"}, "Inner hair cells (IHC)": {"tested_on": "Inner hair cells (IHC)", "assay": "Otoprotection in cultivated cochlea, cis-platin induced loss of inner hair cells", "type": "cell-based", "settings": "cultivated cochlea of post-natal mice; cis-platin 5 μM; test compound 0.1 to 100 μM; compared to controls", "experimental": "as §1, §2, §3, §4"}, "[2]": {"tested_on": "germ cell tumor cell line NT2", "assay": "Survival rate of cis-platin treated cancer cell line NT2 with simultaneous test compound", "type": "cell-based", "settings": "cis-platin 1.4 μM, 10 μM test compound simultaneously, control DMSO 0.1%"}}, "note": "“Also recorded” adds a separate entry of the source."}
{"smiles": "NC(=O)c1cccc(N)c1", "note": "[3-aminobenzamide]", "values": [{"measurement": "effect on cochleal dysfunctions", "setting": "PARP-1", "value": "alleviates"}]}
{"smiles": "CN1CCN(CC(=O)N2c3ccccc3C(=O)Nc3cccnc32)CC1", "note": "[pirenzepine]", "values": [{"measurement": "preserved fraction of outer hair cells (hair cell protection)", "setting": "Outer hair cells (OHC)", "value": "dosis dependent protection; also recorded: dose-dependent increase"}, {"measurement": "effect on cytotoxic effect of cis-platinum (survival rate of cancer cells)", "setting": "[1]", "value": "does not reduce"}, {"measurement": "preserved fraction of inner hair cells (hair cell protection)", "setting": "Inner hair cells (IHC)", "value": "dosis dependent protection; also recorded: dose-dependent increase"}, {"measurement": "effect on cytotoxic effect of cis-platinum (survival rate of cancer cells)", "setting": "[2]", "value": "does not reduce"}]}
